Experimental data reported in patent publication US10004701B2, “Methods and compositions for treating infection” (UNIVERSITY OF ROCHESTER, priority 2012, dated 2018).
Counter-ions that a name gives are not always drawn. Like-named read-outs stand apart in the source and are kept apart here.

Tests used:
Assay in all cases: AK assay 384-well format, Prestwick library screening
E. faecium = type: cell-based, Enterococcus faecium; settings: 50 μM final drug concentration; for AK-based Prestwick Library Screening Results, E. faecium (fold increase in extracellular AK activity): planktonic, cutoff for positive 3-fold increase; for fold induction at 50 µM: Enterococcus faecium, 3 h, cutoff for positive-scoring molecules 3-fold increase
E. cloacae = type: cell-based, Enterobacter cloacae; settings: 50 μM final drug concentration; for AK-based Prestwick Library Screening Results, E. cloacae (fold increase in extracellular AK activity): planktonic, cutoff for positive 3-fold increase; for fold induction at 50 µM: Enterobacter cloacae, 3 h, cutoff for positive-scoring molecules 3-fold increase
E. coli = type: cell-based, Escherichia coli; settings: 50 μM final drug concentration; for AK-based Prestwick Library Screening Results, E. coli (fold increase in extracellular AK activity): planktonic, cutoff for positive 3-fold increase; for fold induction at 50 µM: Escherichia coli, 3 h, cutoff for positive-scoring molecules 3-fold increase
P. aeruginosa = type: cell-based, Pseudomonas aeruginosa; settings: 50 μM final drug concentration; for AK-based Prestwick Library Screening Results, P. aeruginosa (fold increase in extracellular AK activity): planktonic, cutoff for positive 3-fold increase; for fold induction at 50 µM: Pseudomonas aeruginosa, 3 h, cutoff for positive-scoring molecules 3-fold increase
[1] = test system: A. baumannii strain 98-37-09; type: cell-based, Acinetobacter baumannii; settings: 50 μM final drug concentration; for AK-based Prestwick Library Screening Results, A. baumannii (fold increase in extracellular AK activity): planktonic, cutoff for positive 3-fold increase; for fold induction at 50 µM: Acinetobacter baumannii, 983709, 3 h, cutoff for positive-scoring molecules 3-fold increase
[2] = test system: S. aureus strain USA300-0114; type: cell-based, Staphylococcus aureus; settings: 50 μM final drug concentration; for AK-based Prestwick Library Screening Results, S. aureus (fold increase in extracellular AK activity): planktonic, cutoff for positive 3-fold increase; for fold induction at 50 µM: Staphylococcus aureus, USA300, 3 h, cutoff for positive-scoring molecules 3-fold increase
K. pneumoniae = type: cell-based, Klebsiella pneumoniae; settings: 50 μM final drug concentration; for AK-based Prestwick Library Screening Results, K. pneumoniae (fold increase in extracellular AK activity): planktonic, cutoff for positive 3-fold increase; for fold induction at 50 µM: Klebsiella pneumoniae, 3 h, cutoff for positive-scoring molecules 3-fold increase
[3] = planktonic E. faecium, 384-well, read-out: AK-based Prestwick Library Screening Results: E. faecium (increase in extracellular AK activity)
[4] = planktonic E. cloacae, 384-well, read-out: AK-based Prestwick Library Screening Results: E. cloacae (increase in extracellular AK activity)
[5] = planktonic E. coli, 384-well, read-out: AK-based Prestwick Library Screening Results: E. coli (increase in extracellular AK activity)
[6] = planktonic P. aeruginosa, 384-well, read-out: AK-based Prestwick Library Screening Results: P. aeruginosa (increase in extracellular AK activity)
[7] = planktonic A. baumannii, 384-well, read-out: AK-based Prestwick Library Screening Results: A. baumannii (increase in extracellular AK activity)
[8] = planktonic S. aureus, 384-well, read-out: AK-based Prestwick Library Screening Results: S. aureus (increase in extracellular AK activity)
[9] = planktonic K. pneumoniae, 384-well, read-out: AK-based Prestwick Library Screening Results: K. pneumoniae (increase in extracellular AK activity)

Row | Molecule | AK-based Prestwick Library Screening Results, E. faecium (fold increase in extracellular AK activity) (E. faecium) | AK-based Prestwick Library Screening Results, E. cloacae (fold increase in extracellular AK activity) (E. cloacae) | AK-based Prestwick Library Screening Results, E. coli (fold increase in extracellular AK activity) (E. coli) | AK-based Prestwick Library Screening Results, P. aeruginosa (fold increase in extracellular AK activity) (P. aeruginosa) | AK-based Prestwick Library Screening Results, A. baumannii (fold increase in extracellular AK activity) [1] | AK-based Prestwick Library Screening Results, S. aureus (fold increase in extracellular AK activity) [2] | AK-based Prestwick Library Screening Results, K. pneumoniae (fold increase in extracellular AK activity) (K. pneumoniae) | fold induction at 50 µM (E. faecium; [3]) | fold induction at 50 µM (E. cloacae; [4]) | fold induction at 50 µM (E. coli; [5]) | fold induction at 50 µM (P. aeruginosa; [6]) | fold induction at 50 µM [1, 7] | fold induction at 50 µM [2, 8] | fold induction at 50 µM (K. pneumoniae; [9]) | other results
1 | Ketanserin tartrate hydrate | 1.0 | 1.4 | 1.3 | 1.0 | 1.2 | 1.0 | 1.0 | – | – | – | – | – | – | – | –
2 | Cc1ccc(/C(=C\CN2CCCC2)c2ccccn2)cc1 [Triprolidine hydrochloride] | – | – | – | – | – | – | – | – | – | – | – | – | – | – | fold induction at 50 µM (E. faecium; 384-well format, read-out: AK-based Prestwick Library Screening Results, E. faecium (increase in extracellular AK activity)): 1; fold induction at 50 µM (E. cloacae; 384-well format, read-out: AK-based Prestwick Library Screening Results, E. cloacae (increase in extracellular AK activity)): 1; fold induction at 50 µM (E. coli; 384-well format, read-out: AK-based Prestwick Library Screening Results, E. coli (increase in extracellular AK activity)): 1; fold induction at 50 µM (P. aeruginosa; 384-well format, read-out: AK-based Prestwick Library Screening Results, P. aeruginosa (increase in extracellular AK activity)): 1; fold induction at 50 µM ([1]; 384-well format, read-out: AK-based Prestwick Library Screening Results, A. baumannii (increase in extracellular AK activity)): 0.9; fold induction at 50 µM ([2]; 384-well format, read-out: AK-based Prestwick Library Screening Results, S. aureus (increase in extracellular AK activity)): 0.6; fold induction at 50 µM (K. pneumoniae; 384-well format, read-out: AK-based Prestwick Library Screening Results, K. pneumoniae (increase in extracellular AK activity)): 0.7
3 | CN1CCCN=C1/C=C/c1cccc(O)c1.O=C(O)c1cc2ccccc2c(Cc2c(O)c(C(=O)O)cc3ccccc23)c1O [Oxantel pamoate] | 1.0 | 1.8 | 1.1 | 1.0 | 1.1 | 1.3 | 1.0 | – | – | – | – | – | – | – | –
4 | CCCNC(=O)NS(=O)(=O)c1ccc(Cl)cc1 [Chlorpropamide] | – | – | – | – | – | – | – | 0.9 | 0.3 | 0.4 | 0.3 | 0.3 | 0.4 | 0.4 | –
5 | CN(C)CCCO[C@@H]1[C@H]2OC(C)(C)O[C@H]2O[C@@H]1[C@H](O)CO [Amiprilose hydrochloride] | – | – | – | – | – | – | – | – | – | – | – | – | – | – | fold induction at 50 µM (E. faecium; read-out: AK-based Prestwick Library Screening Results, E. faecium (fold increase in extracellular AK activity)): 1.1; fold induction at 50 µM (E. cloacae; read-out: AK-based Prestwick Library Screening Results, E. cloacae (fold increase in extracellular AK activity)): 1.5; fold induction at 50 µM (E. coli; read-out: AK-based Prestwick Library Screening Results, E. coli (fold increase in extracellular AK activity)): 1.3; fold induction at 50 µM (P. aeruginosa; read-out: AK-based Prestwick Library Screening Results, P. aeruginosa (fold increase in extracellular AK activity)): 1.1; fold induction at 50 µM ([1]; read-out: AK-based Prestwick Library Screening Results, A. baumannii (fold increase in extracellular AK activity)): 1.2; fold induction at 50 µM ([2]; read-out: AK-based Prestwick Library Screening Results, S. aureus (fold increase in extracellular AK activity)): 1.3; fold induction at 50 µM (K. pneumoniae; read-out: AK-based Prestwick Library Screening Results, K. pneumoniae (fold increase in extracellular AK activity)): 0.9
6 | COc1cc(C(=O)NCc2ccc(OCCN(C)C)cc2)cc(OC)c1OC [Trimethobenzamide hydrochloride] | – | – | – | – | – | – | – | 1.1 | 1.3 | 1.2 | 1 | 1.2 | 1.2 | 1.1 | –
